Assay: Hygroscopicity: water content (LOD) of samples stored at different relative humidity for one week
Type: physicochemical
Source text: As used herein, the term “non-hygroscopic” refers to a compound that contains no more than about 2% wt/wt of water, more preferably no more than about 1.5% wt/wt of water, most preferably no more than about 1% wt/wt of water, when exposed to 80% humidity, at room temperature for 1 week. The hygroscopicity of amorphous pimecrolimus of the present invention was examined by measuring the water content in samples stored at different relative humidity value (RH) (0, 40, 60, and 80 percent) for a period of one week.

## CC[C@@H]1/C=C(\C)C[C@H](C)C[C@H](OC)[C@H]2O[C@@](O)(C(=O)C(=O)N3CCCC[C@H]3C(=O)O[C@H](/C(C)=C/[C@@H]3CC[C@H](Cl)[C@H](OC)C3)[C@H](C)[C@@H](O)CC1=O)[C@H](C)C[C@@H]2OC [Pimecrolimus, (1R,9S,12S,13R,14S,17R,18E,21 S,23S,24R,25S,27R)-12-[(1E)-2-{(1R,3R,4S)-4-chloro-3-methoxycyclohexyl}-1-methylvinyl]-17-ethyl-1,14-dihydroxy-23,25-dimethoxy-13,19,21,27-tetramethyl-11,28-dioxa-4-aza-tricyclo[22.3.1.0^4,9]octacos-18-ene-2,3,10,16-tetraone]
RH 0 to 80 percent, one week
  hygroscopicity (result in words): non-hygroscopic
Original sample, before storage
  LOD (%): 1.1%
Stored at RH 0 % for one week
  LOD (%): 0.8%
Stored at RH 40 % for one week
  LOD (%): 1.1%
Stored at RH 60 % for one week
  LOD (%): 1.1%
Stored at RH 80 % for one week
  LOD (%): 1.1%
Stored at relative humidity from about 0 percent to about 80 percent, one week
  water content of the samples: about 1%
